This is an account of results in patent US20160106727A1, “COMPOSITION AND METHOD FOR THE TREATMENT OF NEURODEGENERATION” (Wright State University, priority 2011, published 2016).

The test concerns neurogenesis in the subventricular zone of the lateral brain ventricles. Briefly: Adult neurogenesis by doublecortin staining after two weeks of daily oral treatment. As to conditions: for Fold increase in neurogenesis over vehicle control: anterior subventricular zone. The test is classed as in vivo, male Wistar rats.
Setting [1] is: doublecortin staining, two weeks daily oral.

Source text: Animals, more specifically, male Wistar rats were used to measure differences in neurogenesis in the subventricular zone of the lateral brain ventricles in response to the various drug treatments using doublecortin primary antibody to measure neurogenesis.
The male Wistar rats aged approximately one year old were used, wherein a doublecortin antibody was used to measure neurogenesis with a horseradish peroxidase labeled secondary antibody developed with 3,3′-Diaminobenzidine (DAB).
Wherein, the male Wistar rats were given voluntary oral drug treatments daily for a two week period.
For example, four groups of Wistar rats, n=6 in each, were given a vehicle control or one of three drug compositions which are voluntary orally administered for a period of two weeks, euthanized and the brain dissected for immunohistochemistry.
Specifically, all dissected animal brains were blocked and post fixed for 24 hours in 4% paraformaldehyde in PBS at 5° C. The brains were then put into 30% sucrose in PBS at 5° C. for at least 3 days and then cut on a cryostat into 50 micron coronal sections. The sections were collected into PBS, blocked for one hour with PBS containing 1% Tween and 3% secondary antibody host serum, then reacted with doublecortin primary antibody, 1:500 dilution in blocking solution. […] Free-floating sections were washed with 3 washes of PBS containing 0.1% Tween, then incubated in the dark with secondary antibodies, Cy3-labeled Donkey anti-rabbit IgG, FITC-labeled Donkey anti-sheep IgG; Jackson Immunology, at a 1:100 dilution in blocking solution for 2.5 hours at room temperature or a Vector ABC elite horseradish peroxidase DAB kit was used according to kit instructions, mounting the final washed sections on gel-subbed slides. Sections with fluorescent secondary antibodies were washed three times with PBS containing 0.1% Tween and then the sections were mounted on gel-subbed slides.
ANOVA (analysis of variance) was used for statistical analysis.

As for `CNCCC(Oc1ccc(C(F)(F)F)cc1)c1ccccc1` (stereo not shown) [fluoxetine], under setting [1], the “Fold increase in neurogenesis over vehicle control” value is “approximately 10 fold” and the “Neurogenesis compared to vehicle control (in words)” value was “significant increase in neurogenesis”. The “Fold increase in neurogenesis over vehicle control” value (doublecortin staining, two weeks daily oral, listed as Fluoxetine) is given as 10 fold. Moreover, the “Area of doublecortin staining (mean)” value (subventricular zone of anterior lateral ventricles, daily voluntary oral treatment for two weeks, FIG. 1E) came to 0.5727 mm^2.
